{
  "source": "patent US10980769B2",
  "about": "“Tiglien-3-one derivatives” (QBIOTICS PTY LTD, priority 2005, dated 2021)",
  "key": {"B16 mouse melanoma": {"system": "B16 mouse melanoma", "experiment": "Topical treatment of B16 melanoma tumours in C57BL/6 mice", "type": "in vivo", "description": "Tumour cells were injected subcutaneously (2 million cells/site in 50 μL culture medium for LK2 cells, 0.5 million for B16) into 4 sites each on the flanks of nude mice (for LK2 cells) or C57BL/6 mice (B16 mouse melanoma cells). When tumours became visible (2-4 mm diameter) five to 10 days after injection of cells, 37 μg of EBI-46 in 25 μL, of isopropanol gel was applied to each tumour site, each day for 3 days. Tumour size was measured with calipers at appropriate intervals.\nAnimal experiments were conducted under Queensland Institute of Medical Research (QIMR) Animal Ethics Committee approvals. The B16 mouse melanoma model was obtained by injecting 0.5 million B16 mouse melanoma cells subcutaneously into each of the 2 flanks of a male C57BL/6 mouse. The human tumour xenografts were obtained by injecting 2 million of the respective tumour cell line into each of 4 sites on the flanks of male nude mice (BALB/c background). EBI-46 was applied: (a) topically by dilution of a concentrated solution in acetone into an isopropanol gel, once a day for 3 days; (b) intralesionally by injection into the tumour of drug dissolved in 25% propylene glycol-0.1 M saline, (c) systemically by injection intraperitoneally in 25% propylene glycol in 0.1 M saline. Tumour size was measured with electronic callipers in mm and converted to volume (cubic mm) using the formula: Tumour volume=length×breadth×breadth/2. Results\nTopical application of EBI-46 in an isopropanol gel was carried out on the aggressive B16 mouse melanoma in its natural (syngeneic) host, C57BL/6 mice (0.5 million tumour cells injected per site).\nThe frequency (1 daily dose for 3 days only) and dose level for topical application of PKC activators was selected on the basis of in vitro activity on cell lines. The materials were dissolved in acetone and diluted into an isopropanol gel for topical application.\nThe aggressive and rapidly growing B16 mouse melanoma is recognised as a very stringent tumour model in which to test anticancer agents. Stringency was further increased by injecting at least 10× more tumour cells than the minimum required to form a tumour in the animal. […] Such tumours could be distinguished from subcutaneous tumours by their immobility when the skin was pulled around the body of the animal."}, "[1]": {"system": "K562 leukemia, MCF-7 breast cancer, Colo-205 colon cancer and D04 and SKMel-5 melanoma", "experiment": "In vitro growth inhibition profile, sensitive versus other cell lines", "type": "cell-based, human", "description": "In addition, scattering of MCF-7 and HT-29 colon tumour cells was observed, typical of PKC activators. […] Additionally, given their similarity in structure, EBI-47, EBI-59 and EBI-61 are also considered to be protein kinase C activators.\nFor growth inhibition assays, cells (2000-5000/well) were seeded in 96-well plates in duplicate, treated with drug next day and allowed to grow for a further 5-6 days. The plates were then washed in PBS (phosphate buffered saline, pH 7.2), fixed with ethanol and stained by addition of 50 μL 0.4% SRB (sulforhodamine) in 1% acetic acid. The plate was left at room temperature for a minimum of 15 minutes, then washed rapidly with tap water and then twice with 1% acetic acid. After addition of 100 μL/well of 10 mM Tris base (unbuffered, pH>9), plates were left for a minimum of 5 minutes, then the absorbance was read at 564 nm on the ELISA reader, with a 3 second prior shaking. After subtraction of a blank (wells with no cells, typically about 0.04), growth inhibition was calculated as % of the untreated control and plotted against dose. […]"}, "Bacillus subtilis": {"system": "Bacillus subtilis", "experiment": "ProTOX (Bs) antibacterial bioassay", "type": "cell-based", "excerpt": "ProTOX, (alternatively referred to herein as Bs) is an antibacterial bioassay, broadly applicable to most aerobic and anaerobic bacteria. The bioassay features a solid phase agar base into which the test compound has been incorporated together with a chromogen. As the bacteria multiply in the well, the chromogen is metabolised from blue in a two-step process to a colourless compound. Compounds with potent bactericidal activity inhibit bacterial metabolism of the chromogen while bacteriostatic compounds induce limited metabolism as indicated by an intermediate pink colour. ProTOX is broadly applicable to a range of gram-positive and gram-negative bacteria under aerobic and microaerophilic conditions. ProTOX assays were carried out using Bacillus subtilis.\nBriefly, in ProTOX, the bacteria (24 hour broth) were applied to the surface of an agar matrix containing the test sample and allowed to grow for 48 hours. The assay was monitored at 24 and 48 hours and the active wells noted. Known antibiotics yield consistent colour transitions which are concentration and time dependent. These patterns provide an important guide to the early recognition of interesting characteristics."}, "Human melanoma SKMel-5": {"system": "Human melanoma SKMel-5", "experiment": "Growth inhibition of cultured cells", "type": "cell-based", "description": "(§1) Briefly, a range of tumour cells including mouse melanoma, human melanoma, mouse squamous cell carcinoma, human breast, human colon, human leukemia and human lung and normal human cells including normal human fibroblasts were seeded at 2-5,000 per microtitre well (96-well plate) in 10% FCS-RPMI 1640 culture medium, treated, and allowed to grow until the controls were nearly confluent (5-6 days). The wells were then washed twice with PBS, fix with ethanol for a minimum of 5 minutes and washed with water. SRB solution (50 μL of 0.4% in 1% acetic acid) was added and left at room temperature for a minimum of 15 minutes. The plate was washed rapidly with tap water and then twice with 1% acetic acid. After addition of 100 μL/well of 10 mM Tris base (unbuffered, pH>9), plates were left for a minimum of 5 minutes, then the absorbance was read at 564 nm on the ELISA reader, with a 3 second prior shaking. After subtraction of a blank (wells with no cells, absorbance typically about 0.04), growth inhibition was calculated as % of the untreated control and plotted against dose.\n(§2) Briefly, a suspension of a range of tumour cells including mouse melanoma, human melanoma, mouse squamous cell carcinoma, human breast, human colon, human leukemia and human lung and normal human cells including normal human fibroblasts were seeded into round-bottom microtitre plates in 10% FCS-RPMI 1640 culture medium, treated and allowed to grow for 5-6 days. To measure cell growth, 20 μL of a combined MTS/PMS solution (Promega Cell ProliferationAssay Kit Cat #G5430) was added to each well of the 96 well assay plate. After 1-4 hours the plates were placed in the ELISA plate reader and the absorbance read at 490 nm. After subtraction of a blank (wells with no cells, absorbance typically about 0.4), growth inhibition was calculated as % of the untreated control and plotted against dose."}, "mouse melanoma B16": {"system": "mouse melanoma B16", "experiment": "Growth inhibition of cultured cells", "type": "cell-based", "description": "as §1, §2"}, "[2]": {"system": "Mouse squamous cell carcinoma K-2", "experiment": "Growth inhibition of cultured cells", "type": "cell-based", "description": "as §1, §2"}, "[3]": {"settings": "topical, approximately 150 μg/site"}},
  "data": [
    {"compound": "C/C=C(\\C)C(=O)OC1C(C)C2(O)C(C3OC3(CO)C(O)C3(O)C(=O)C(C)=CC32)C2C(C)(C)C12OC(=O)C(C)CC", "note": "(stereo not drawn) [EBI-46, 12-tigloyl-13-(2-methylbutanoyl)-6,7-epoxy-4,5,9,12,13,20-hexahydroxy-1-tiglian-3-one]", "values": [
      {"measurement": "systemic toxicity or lung metastases on post mortem", "setting": "B16 mouse melanoma; topical 37 μg per site once a day for 3 days", "result": "There were no signs of"},
      {"measurement": "tumour growth", "setting": "B16 mouse melanoma; topical 37 μg per site once a day for 3 days starting at day 5", "result": "inhibition of tumour growth."},
      {"measurement": "inflammatory response", "setting": "B16 mouse melanoma; [3]", "result": "mild"},
      {"measurement": "systemic toxicity or lung metastases", "setting": "B16 mouse melanoma; [3]", "result": "no sign of systemic toxicity or lung metastases"},
      {"measurement": "tumour sites cured", "setting": "B16 mouse melanoma; [3]", "result": "one site apparently cured"},
      {"measurement": "tumour response", "setting": "B16 mouse melanoma; topical, approximately 150 μg/site, 1 daily dose for 3 days", "result": "good response"},
      {"measurement": "growth-inhibiting doses in sensitive cell lines lower than for other human tumour cell lines and normal human fibroblasts", "setting": "[1]", "result": "approximately 100 fold"},
      {"measurement": "Bs Titre", "setting": "Bacillus subtilis", "result": 1},
      {"measurement": "Bs LD99", "setting": "Bacillus subtilis; Table 6a, last well with activity, real value may be lower", "result": 50, "unit": "pg/mL"},
      {"measurement": "Concentration of EBI-46 at which growth inhibition was observed", "setting": "Human melanoma SKMel-5", "result": "<100", "unit": "ng/mL"},
      {"measurement": "Concentration of EBI-46 at which growth inhibition was observed", "setting": "mouse melanoma B16", "result": "=/<2 μg/mL"},
      {"measurement": "Concentration of EBI-46 at which growth inhibition was observed", "setting": "[2]", "result": "<100", "unit": "ng/mL"}
    ]}
  ]
}
